Measurements: BindingDB's records for doi:10.1016/s0960-894x(00)00478-9 (Laval University, 2001)

Experiments:
[1] = The compound was evaluated for inhibition of Glutaminyl-tRNA synthetase with respect to glutamine.
[2] = target: Glutamine--tRNA ligase (Escherichia coli) (UniProt P00962); test: The compound was evaluated for inhibition of Glutaminyl-tRNA synthetase for Escherichia coli with respect to ATP.
Glutamine--tRNA ligase (Escherichia coli), sequence (P00962 whole entry, looked up): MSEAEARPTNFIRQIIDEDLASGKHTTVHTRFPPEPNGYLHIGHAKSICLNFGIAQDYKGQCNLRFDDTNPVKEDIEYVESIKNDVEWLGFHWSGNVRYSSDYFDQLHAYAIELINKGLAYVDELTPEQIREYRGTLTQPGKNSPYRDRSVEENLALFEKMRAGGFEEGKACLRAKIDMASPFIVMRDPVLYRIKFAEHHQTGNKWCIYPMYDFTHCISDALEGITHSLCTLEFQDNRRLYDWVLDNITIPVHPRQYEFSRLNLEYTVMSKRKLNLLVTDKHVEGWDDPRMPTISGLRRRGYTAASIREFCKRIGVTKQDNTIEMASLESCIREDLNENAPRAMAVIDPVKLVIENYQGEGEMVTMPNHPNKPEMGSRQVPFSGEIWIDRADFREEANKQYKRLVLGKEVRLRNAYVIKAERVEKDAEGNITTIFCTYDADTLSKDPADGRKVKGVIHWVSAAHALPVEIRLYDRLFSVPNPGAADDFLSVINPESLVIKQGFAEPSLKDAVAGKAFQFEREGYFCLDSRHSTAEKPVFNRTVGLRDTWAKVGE

- Ki [1]: 280 nM
- Ki [2]: 860 nM
Structure (SMILES): NC(=O)CCC(N)COP(=O)(O)OC[C@H]1OC(n2cnc3c(N)ncnc32)[C@H](O)[C@@H]1O (some centres not stated)
